Columns and labels:
Type in all cases: cell-based, human
LNCaP cells [1] = assay: MTT assay, LNCaP; conditions: for IC50: 72 h, MTT, mean ± SD; for SI LNCaP: SI = IC50 normal cell line (RWPE-1)/IC50 cancer cell line
Description: (§1) MTT analysis was performed as described previously.
(§2) Cell absorbance results were substituted into the formula for the relative MTT level (%). It allows to calculate the viability of cells exposed to the test compounds. Cell viability is the percentage of MTT reduction in cells to which the test compounds were added compared to the control sample, where only the medium was added to the cells.
(§3) The relative MTT level was calculated using the formula: life time [100%] = A/B × 100% where: A—the test sample absorbance; B—the control sample absorbance.
(§4) The statistical analysis was performed using the Statistica 13.0 (StatSoft, Inc, Tulsa, OK, USA) program. Comparison between studied groups was performed by the paired Student’s t-test. Results were expressed as means ± SD, and considered statistically significant at p < 0.05. All data were calculated from 3 separate experiments. IC50 values were calculated using GraphPad Prism 6 software (GraphPad Software, San Diego, CA, USA).

DU-145 cells [2] = assay: MTT assay, DU-145; conditions: for IC50: MTT, 72 h, mean ± SD; for SI DU-145: SI = IC50 normal cell line (RWPE-1)/IC50 cancer cell line
Description: as §1, §2, §3, §4

RWPE-1 cells [3] = assay: MTT assay, normal RWPE-1; conditions: mean ± SD
Description: as §1, §2, §3, §4

LNCaP cells [4] = assay: LDH test, LNCaP; conditions: 72 h; tested at 10-60 µM, concentration of quoted value not stated
Description: (§5) Lactate dehydrogenase (LDH) as a cytosolic enzyme determined in culture medium is a marker of cell death. The LDH activity determination was performed after 72 h incubation of cells (1 × 10^4 cells per well) in 96-well plates with the selected conjugates of gradually decreasing concentration according to the procedure mentioned at earlier study by Chrzanowska et al.. The cytotoxicity of test compounds was expressed as % of LDH released from test cells. This parameter is calculated using the formula: cytotoxicity = [A test sample − A “low control”]/[A “high control” − A “low control”] where: A—absorbance, “Low control”—cells in DMEM medium with 2% FBS, “High control”—cells in DMEM with 2% FBS with 1% Triton X-100.

DU145 cells = assay: LDH test, DU145; conditions: 72 h; tested at 10-60 µM, concentration of quoted value not stated
Description: as §5

RWPE-1 cells [5] = assay: Apoptosis detection (Annexin V/7-AAD flow cytometry), RWPE-1; conditions: IC50 concentration, 72 h, % of cells
Description: (§6) Then, a commercially available kit (FITC:Annexin V Apoptosis Detection Kit I; BD Biosciences Pharmingen. San Jose, CA, USA) was used. The medium was removed from the plates and approximately 1 mL of PBS was added to the wells for rinsing, followed by 0.7 mL of trypsin, and left for 3 min. Then, the plate wells were washed twice with 0.5 mL PBS with 2% FBS and next the entire content of the given walls was transferred to test tubes. The tubes were centrifuged for 7 min in a centrifuge at 1700 rpm. The supernatant solution was removed. […] After this time, 0.4 mL of PBS with FBS was added to the tubes and mixed again. […] Annexin V-reactive cells, but not 7-AAD-reactive cells were in the early stage of apoptosis, while cells reactive with both reagents were in late-stage apoptosis or were dead.

LNCaP cells [6] = assay: Apoptosis detection (Annexin V/7-AAD flow cytometry), LNCaP; conditions: IC50 concentration, 72 h, % of cells
Description: as §6

DU-145 cells [7] = assay: Apoptosis detection (Annexin V/7-AAD flow cytometry), DU-145; conditions: IC50 concentration, 72 h, % of cells
Description: as §6

[8] = test system: IL-6 release by LNCaP cells; assay: Interleukin-6 ELISA, LNCaP; conditions: IC50 concentration, 72 h; control 40.1 pg/mL
Description: (§7) The sandwich ELISA assay is used to confirm the presence of interleukin 6 (IL-6) in the test cell line supernatant. Interleukin IL-6 ELISA kit was purchased from Diaclone SAS (Besancon Cedex, France). […] Before starting the test, a standard curve was prepared. An amount of 100 μL of test supernatant samples from the RWPE-1, LNCaP and DU145 cell lines incubated with the tested compounds, control solutions and blank were added to the plate’s wells. Then, 50 µL of diluted biotinylated anti-human interleukin-6 antibody was added to each well. The prepared plate was incubated at room temperature for one hour. At the end of this time, the solution in the plate wells was decanted and rinsed with the washing solution. After repeating the procedure three times, 100 μL solution of streptavidin covalently bound to horseradish peroxidase (HRP) was added to the wells. Then, the plates were incubated for 30 min. The next step was to remove the solution and rinse the plates three times. After adding 100 μL of tetramethylbenzidine (TMB) solution to each well, the plates were incubated for 15 min in the dark. In order to stop the reaction, 100 μL of H2SO4 solution were added. The absorbance of the tested samples was read using a spectrophotometer at 450 nm (Microplate Spectrophotometer Thermo Scientific™ Multiskan™ GO).

[9] = test system: IL-6 release by DU145 cells; assay: Interleukin-6 ELISA, DU145; conditions: IC50 concentration, 72 h; control 134.475 pg/mL
Description: as §7

PC3 cells = assay: MTT assay, PC3; conditions: SI = IC50 normal cell line (RWPE-1)/IC50 cancer cell line
Description: as §1, §2, §3, §4

Row | SMILES | IC50 (LNCaP cells [1]; Homo sapiens, LNCaP) | IC50 (LNCaP cells [1]) | IC50 (DU-145 cells [2]; Homo sapiens, DU-145, 72 h) | IC50 (DU-145 cells [2]) | IC50 (RWPE-1 cells [3]; Homo sapiens, RWPE-1, 72 h) | released lactate dehydrogenase, LNCaP (LNCaP cells [4]) | released lactate dehydrogenase, DU145 (DU145 cells) | Early Apoptosis (%), RWPE-1 (RWPE-1 cells [5]) | Late apoptosis (%), RWPE-1 (RWPE-1 cells [5]) | Early Apoptosis (%), LNCaP (LNCaP cells [6]) | Late apoptosis (%), LNCaP (LNCaP cells [6]) | Late apoptosis (%), LNCaP (LNCaP cells [6]; listed as CP) | Early Apoptosis (%), DU145 (DU-145 cells [7]) | Late apoptosis (%), DU145 (DU-145 cells [7]) | IL-6 concentration, LNCaP [8] | IL-6 concentration, DU145 [9] | SI LNCaP (LNCaP cells [1]) | SI DU-145 (DU-145 cells [2]) | SI PC3 (PC3 cells) | IC50 (RWPE-1 cells [3]; 72 h)
1 | O=C(O)c1cn(C2CC2)c2cc(N3CCNCC3)c(F)cc2c1=O [Ciprofloxacin] | > 70000 nM | 71200 ± 3800 nM | > 70000 nM | 70500 ± 3600 nM | 72100 ± 5200 nM | 18.5–24.6% | 18.5–24.6% | 2.9% | 1.4% | 26.8% | did not affect the late apoptosis | 0.7% | 20.8% | 0.3% | 28.7 pg/mL | 119.72 pg/mL | – | – | – | –
2 | N.N.[Cl][Pt][Cl] [Cisplatin] | – | 1780 ± 740 nM | – | 1360 ± 690 nM | – | – | – | – | – | – | – | – | – | – | – | – | 1.5 | 2 | 1.78 | 2690 ± 1100 nM
3 | COc1cccc2c1C(=O)c1c(O)c3c(c(O)c1C2=O)C[C@@](O)(C(=O)CO)C[C@@H]3O[C@H]1C[C@H](N)[C@H](O)[C@H](C)O1 [Doxorubicin] | 480 ± 210 nM | – | 590 ± 140 nM | – | 650 ± 100 nM | – | – | – | – | – | – | – | – | – | – | – | 1.3 | 1.1 | 2 | –

Source: publication PMC8773529 (Cancers, 2022)
